Literature values in patent US6383513B1, “Compositions comprising cannabinoids” (West Pharmaceutical Services Drug Delivery & Clinical …, priority 1997, dated 2002).

Columns and labels:
[1] = not given; remark: listed apart in the source

## CCCCCc1cc(O)c2c(c1)OC(C)(C)[C@@H]1CCC(C)=C[C@@H]21 [Dronabinol, delta-9-tetrahydrocannabinol]
After administration
  appetite stimulant effect may continue: ≥ 24 h
After oral administration
  duration of action for psychoactive effects: 4 to 6 h
  onset of action: 0.5 to 1 h
  peak effect: 2 to 4 h
[1]; after single oral doses
  absorbed: 90-95%
[1]; oral, first pass hepatic metabolism and high lipid solubility
  administered dose that reaches the systemic circulation: 10-20%
